The results in this text go back to ChEMBL document CHEMBL3792277, “Structurally Diverse Mitochondrial Branched Chain Aminotransferase (BCATm) Leads with Varying Binding Modes Identified by Fragment Screening” (J Med Chem, 2016).

By IC50 is commonly meant the concentration that gives 50% inhibition. A high value points to lower potency. The solubility is how much of the substance goes into solution per volume.

Converted amounts (≈) assume the structure as drawn.

The target in one data set is T1, Branched-chain-amino-acid aminotransferase, mitochondrial (Homo sapiens, UniProt O15382).
T1 sequence (O15382 whole entry): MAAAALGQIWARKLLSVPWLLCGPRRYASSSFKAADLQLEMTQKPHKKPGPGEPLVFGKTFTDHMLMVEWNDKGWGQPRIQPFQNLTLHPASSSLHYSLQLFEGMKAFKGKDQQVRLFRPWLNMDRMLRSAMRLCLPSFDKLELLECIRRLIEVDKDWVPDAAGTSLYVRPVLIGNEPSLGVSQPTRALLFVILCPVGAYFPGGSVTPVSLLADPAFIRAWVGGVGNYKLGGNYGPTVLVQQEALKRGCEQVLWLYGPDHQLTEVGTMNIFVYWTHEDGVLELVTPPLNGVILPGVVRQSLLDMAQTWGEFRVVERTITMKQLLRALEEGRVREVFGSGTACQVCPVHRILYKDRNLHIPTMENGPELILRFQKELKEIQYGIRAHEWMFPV
Nature of the data set: Inhibition of human BCATm incubated for 10 mins by Amplex red- based fluorescence analysis.
`Cc1ccccc1NC(=O)c1sc2ncnc(O)c2c1C`: half-maximal inhibition (IC50) required 50.1 µM.
On the same count and under the same terms, as for `Cc1c(C(=O)Nc2ccccc2)sc2ncnc(O)c12`, the figure is 7.94 µM; as for `Cc1c(C(=O)O)sc2ncn(C)c(=O)c12`, 63.1 µM; as for `NC(=O)c1ccc(N2CCc3ccccc3C2=O)cc1`, 15.8 µM.
Same read-out and setting: as for `O=C(O)Cc1noc2ccccc12`, the figure is over 1260 µM; as for `O=C(Nc1ccc(-c2cc[nH]n2)cc1)c1ccccc1`, 5.01 µM.
`NC(=O)c1sccc1-c1ccccc1` had an IC50 of 158 µM.
Same read-out and setting: as for `O=C(O)Cc1ccccc1C(=O)Nc1ccccc1`, the figure is 316 µM; as for `OCc1ccc2nsnc2c1`, over 1260 µM.
On the same count and under the same terms, next, `Cc1c(C(=O)NC2CCCC2)sc2ncn(C)c(=O)c12`: over 63.1 µM; `CC1CNc2c(cccc2S(N)(=O)=O)C1` (configuration not stated): over 1260 µM; `O=C(Nc1cnc(-c2cc[nH]n2)nc1)c1ccccc1`: 3.16 µM.
On the same count and under the same terms, next, `CS(=O)(=O)c1ccccc1C(=O)Nc1ccccc1`: 200 µM; `Cc1c(C(=O)N2CCCCC2)sc2ncn(C)c(=O)c12`: over 631 µM; `O=C(Nc1cncnc1)c1ccccc1`: 1000 µM.
Turning to `O=C(CO)NC1CCCc2ccccc21` (configuration not stated), the half-maximal inhibitory concentration (IC50) was over 1260 µM.
In the case of `Nc1ccc(Oc2ccccc2)nn1`, inhibition was half-maximal at 126 µM (IC50).
The same measure, in the same setting: as for `CCOC(=O)Cc1ccccc1NC(=O)c1sc2nc[nH]c(=O)c2c1C`, the figure is over 63.1 µM.
Still for that read-out and setting: as for `O=C1c2ccccc2CCN1c1ccc(-c2cc[nH]n2)cc1`, the figure is 1.58 µM; as for `Cc1cccc(NC(=O)c2sc3nc[nH]c(=O)c3c2C)c1`, over 63.1 µM; as for `O=C(O)Cc1ccccc1C(=O)Nc1ccc(-c2cc[nH]n2)cc1`, 2 µM.
On the same count and under the same terms, next, `NC(=O)c1ccc(NC(=O)c2ccc(Cl)c(Cl)c2)cc1`: 2.51 µM.
In turn, `NC(=O)c1ccccc1-c1ccccc1` gave an IC50 of 158 µM.
`NC(=O)NCC(O)c1ccccc1` (configuration not stated) showed a 50% inhibitory concentration (IC50) of 794 µM.
As for `Cc1c(C(=O)Nc2ccccc2)sc2ncn(C)c(=O)c12`, 7.94 µM corresponded to half-maximal inhibition (IC50).
On the same count and under the same terms, next, `Cc1cc2cc(C)c(SCC(=O)O)nc2cc1C`: 0.251 µM; `Cc1ccc(NC(=O)c2sc3nc[nH]c(=O)c3c2C)cc1`: over 63.1 µM; `Cc1c(C(=O)Nc2ccon2)sc2nc[nH]c(=O)c12`: over 63.1 µM.
For the compound `Cc1c(C(=O)Nc2ccccc2S(C)(=O)=O)sc2nc[nH]c(=O)c12`, the IC50 is over 63.1 µM.
In turn, `NC(=O)c1ccc(NC(=O)c2ccccc2)cc1` gave an IC50 of 50.1 µM.
Same read-out and setting: next, `CC(C)C(Sc1ncnc2ccccc12)C(=O)O` (configuration not stated): 7.94 µM; `O=C(Nc1ccccc1)c1ccccc1` [N-PHENYLBENZAMIDE]: over 631 µM.

Test system in a further data set: not listed separately
Kind of data set: Solubility of compound in PBS at pH 7.4 after 1 hr by chemiluminiscent nitrogen detection method. The data set is classed as physicochemical.
Consider `NC(=O)c1ccc(N2CCc3ccccc3C2=O)cc1`, for which the solubility at 1 h is 132 µg/mL (≈ 496 µM).
On the same count and under the same terms, as for `O=C(Nc1ccc(-c2cc[nH]n2)cc1)c1ccccc1`, the figure is 12 µg/mL (≈ 45.6 µM); as for `O=C(Nc1cnc(-c2cc[nH]n2)nc1)c1ccccc1`, 82 µg/mL (≈ 309 µM); as for `O=C1c2ccccc2CCN1c1ccc(-c2cc[nH]n2)cc1`, 94 µg/mL (≈ 325 µM).
On the same count and under the same terms, as for `NC(=O)c1ccc(NC(=O)c2ccccc2)cc1`, the figure is 13 µg/mL (≈ 54.1 µM).
